# Results from ChEMBL document CHEMBL1287723, “The discovery of new spirocyclic muscarinic M3 antagonists” (Bioorg Med Chem Lett, 2010).
# Assays:
# [1] = molecular target: T1, Muscarinic acetylcholine receptor M2 (Homo sapiens, UniProt P08172); assay: Displacement of [3H]NMS from human muscarinic M2 receptor expressed in CHO-K1 cells after 16 hrs by scintillation proximity assay; format: cell-based
# T1 sequence (P08172 whole entry): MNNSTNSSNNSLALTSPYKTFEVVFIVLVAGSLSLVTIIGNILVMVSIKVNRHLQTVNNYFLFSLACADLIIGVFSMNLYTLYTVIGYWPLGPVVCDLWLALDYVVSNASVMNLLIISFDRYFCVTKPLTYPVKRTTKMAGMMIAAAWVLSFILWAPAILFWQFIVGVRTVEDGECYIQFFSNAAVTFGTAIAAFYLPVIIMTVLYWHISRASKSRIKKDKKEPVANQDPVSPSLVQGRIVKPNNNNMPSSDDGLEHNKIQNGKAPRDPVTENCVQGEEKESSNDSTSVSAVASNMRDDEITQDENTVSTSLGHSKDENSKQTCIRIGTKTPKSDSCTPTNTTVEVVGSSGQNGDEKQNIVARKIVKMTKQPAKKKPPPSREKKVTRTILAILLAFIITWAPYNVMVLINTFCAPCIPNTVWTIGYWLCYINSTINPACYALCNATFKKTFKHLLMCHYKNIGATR
# [2] = molecular target: T2, Muscarinic acetylcholine receptor M3 (Homo sapiens, UniProt P20309); assay: Displacement of [3H]NMS from human muscarinic M3 receptor expressed in CHO-K1 cells after 16 hrs by scintillation proximity assay; format: cell-based
# Target sequence in this assay (P20309 whole entry): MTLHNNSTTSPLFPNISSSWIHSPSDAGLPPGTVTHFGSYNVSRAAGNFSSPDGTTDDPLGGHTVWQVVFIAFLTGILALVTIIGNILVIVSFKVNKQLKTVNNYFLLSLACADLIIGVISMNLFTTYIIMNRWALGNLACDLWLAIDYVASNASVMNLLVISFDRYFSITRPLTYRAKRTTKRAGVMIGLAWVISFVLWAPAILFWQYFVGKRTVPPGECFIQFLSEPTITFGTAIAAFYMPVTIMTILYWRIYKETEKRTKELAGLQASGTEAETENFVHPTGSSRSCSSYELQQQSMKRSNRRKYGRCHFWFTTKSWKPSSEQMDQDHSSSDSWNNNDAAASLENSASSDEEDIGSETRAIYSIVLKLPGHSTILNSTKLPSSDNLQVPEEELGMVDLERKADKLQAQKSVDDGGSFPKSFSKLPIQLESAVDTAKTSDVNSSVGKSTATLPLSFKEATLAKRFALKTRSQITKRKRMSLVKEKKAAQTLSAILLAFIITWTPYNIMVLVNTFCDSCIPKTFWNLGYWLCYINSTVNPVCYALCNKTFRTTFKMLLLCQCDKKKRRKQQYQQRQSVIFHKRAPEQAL
# [3] = molecular target: T2, Muscarinic acetylcholine receptor M3; assay: Displacement of [3H]NMS from human muscarinic M3 receptor expressed in CHO-K1 cells at 1 uM after 16 hrs by scintillation proximity assay; format: cell-based
# Target sequence in this assay (P20309 whole entry, looked up): as the sequence (P20309 whole entry) above
# [4] = molecular target: T3, Muscarinic acetylcholine receptor M4 (Homo sapiens, UniProt P08173); assay: Displacement of [3H]NMS from human muscarinic M4 receptor expressed in CHO-K1 cells after 16 hrs by scintillation proximity assay; format: cell-based
# T3 sequence (P08173 whole entry): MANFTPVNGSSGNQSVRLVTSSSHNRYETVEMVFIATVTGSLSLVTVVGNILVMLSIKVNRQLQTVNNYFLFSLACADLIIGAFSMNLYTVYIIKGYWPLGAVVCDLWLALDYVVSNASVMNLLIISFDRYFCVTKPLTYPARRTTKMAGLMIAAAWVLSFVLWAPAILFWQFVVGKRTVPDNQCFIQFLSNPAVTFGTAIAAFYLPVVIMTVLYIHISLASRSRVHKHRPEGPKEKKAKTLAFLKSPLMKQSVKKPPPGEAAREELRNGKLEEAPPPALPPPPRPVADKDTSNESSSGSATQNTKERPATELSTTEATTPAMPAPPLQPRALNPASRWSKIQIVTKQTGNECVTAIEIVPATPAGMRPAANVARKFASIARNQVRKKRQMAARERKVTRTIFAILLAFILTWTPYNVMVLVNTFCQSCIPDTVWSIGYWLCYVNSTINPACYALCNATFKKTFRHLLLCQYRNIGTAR
# [5] = molecular target: T4, Muscarinic acetylcholine receptor M5 (Homo sapiens, UniProt P08912); assay: Displacement of [3H]NMS from human muscarinic M5 receptor expressed in CHO-K1 cells after 16 hrs by scintillation proximity assay; format: cell-based
# T4 sequence (P08912 whole entry): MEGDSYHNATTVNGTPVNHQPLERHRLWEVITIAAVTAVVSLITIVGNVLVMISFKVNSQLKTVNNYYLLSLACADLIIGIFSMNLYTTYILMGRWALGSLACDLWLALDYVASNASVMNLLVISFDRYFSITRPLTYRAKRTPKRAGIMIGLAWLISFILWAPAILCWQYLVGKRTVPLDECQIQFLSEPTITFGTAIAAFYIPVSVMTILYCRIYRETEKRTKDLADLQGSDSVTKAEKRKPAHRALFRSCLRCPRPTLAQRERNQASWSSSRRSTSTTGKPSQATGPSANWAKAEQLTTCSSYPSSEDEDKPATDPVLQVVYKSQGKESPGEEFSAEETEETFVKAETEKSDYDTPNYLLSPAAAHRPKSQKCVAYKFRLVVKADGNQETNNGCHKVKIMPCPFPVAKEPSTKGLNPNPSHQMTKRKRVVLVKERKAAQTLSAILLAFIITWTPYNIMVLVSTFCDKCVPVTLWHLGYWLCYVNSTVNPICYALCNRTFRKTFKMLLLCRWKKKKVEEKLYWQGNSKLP
# [6] = molecular target: T5, Muscarinic acetylcholine receptor M1 (Homo sapiens, UniProt P11229); assay: Displacement of [3H]NMS from human muscarinic M1 receptor expressed in CHO-K1 cells after 16 hrs by scintillation proximity assay; format: cell-based
# T5 sequence (P11229 whole entry): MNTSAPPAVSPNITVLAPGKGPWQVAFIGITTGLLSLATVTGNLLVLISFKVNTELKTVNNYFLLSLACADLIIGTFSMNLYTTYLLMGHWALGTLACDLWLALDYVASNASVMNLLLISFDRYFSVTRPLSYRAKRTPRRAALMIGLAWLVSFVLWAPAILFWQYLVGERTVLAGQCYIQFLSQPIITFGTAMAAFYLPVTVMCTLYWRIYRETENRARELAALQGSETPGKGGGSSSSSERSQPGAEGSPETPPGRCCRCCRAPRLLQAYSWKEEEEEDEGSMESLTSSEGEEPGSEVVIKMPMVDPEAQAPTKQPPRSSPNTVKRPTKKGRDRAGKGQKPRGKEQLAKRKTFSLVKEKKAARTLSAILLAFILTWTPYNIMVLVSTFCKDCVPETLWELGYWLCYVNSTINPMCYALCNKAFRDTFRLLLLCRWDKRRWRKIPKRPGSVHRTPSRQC
# [7] = Clearance in human microsomes; format: ADME, Microsome
# [8] = Lipophilicity, log D of the compound; format: physicochemical; settings: octanol/water
# [9] = tested on: Hepatocyte; assay: Clearance in rat hepatocytes; format: ADME, cell-based, Liver
IC50 [1] [nM],IC50 [2] [nM],SMILES,further results
794,398,Cc1ccccc1CN1CCC2(CC1)CN(C(=O)c1csc(C(C)C)n1)CCO2,
50.1,50.1,Cc1ccc(C(=O)N2CCOC3(CCN(Cc4ccc(Cl)cc4)CC3)C2)o1,
251,,O=C(c1ncccn1)N1CCC2(CCN(Cc3ccccc3)CC2)CC1,inhibition [3]: < 50%
> 1000,> 1000,CC(C)(C)c1nc(C(=O)N2CCOC3(CCN(Cc4ccc(Cl)cc4)CC3)C2)cs1,
6.31,126,O=C(c1ccccc1)N1CCC2(CCN(Cc3ccccc3)CC2)CC1,
25.1,20,CC(C)c1nc(C(=O)N2CCOC3(CCN(Cc4ccccc4Cl)CC3)C2)cs1,
20,63.1,O=C(c1cccs1)N1CCOC2(CCN(Cc3ccc(Cl)cc3)CC2)C1,
3.16,7.94,Cc1nc(C(=O)N2CCOC3(CCN(Cc4ccccc4Cl)CC3)C2)cs1,
,,O=C(O[C@H]1C[N+]2(CCCOc3ccccc3)CCC1CC2)C(O)(c1cccs1)c1cccs1 [ACLIDINIUM BROMIDE],IC50 [4]: 0.2 nM; IC50 [5]: 0.158 nM; IC50 [6]: 0.1 nM
25.1,63.1,O=C(c1ccco1)N1CCOC2(CCN(Cc3ccc(Cl)cc3)CC2)C1,
1.26,1.26,Cc1nc(C(=O)N2CCOC3(CCN(Cc4cccc(Cl)c4)CC3)C2)cs1,
10,5.01,CC(C)c1nc(C(=O)N2CCOC3(CCN(Cc4cccc(Cl)c4)CC3)C2)cs1,
15.8,316,O=C(c1ccsc1)N1CCC2(CCN(Cc3ccccc3)CC2)CC1,
15.8,3.98,CC(C)c1nc(C(=O)N2CCOC3(CCN(Cc4ccccc4)CC3)C2)cs1,
79.4,398,O=C(c1ccon1)N1CCOC2(CCN(Cc3ccc(Cl)cc3)CC2)C1,
,,C[N+]1(C)[C@@H]2C[C@@H](OC(=O)C(O)(c3cccs3)c3cccs3)C[C@H]1[C@@H]1O[C@@H]12 [TIOTROPIUM BROMIDE],IC50 [4]: 0.0398 nM; IC50 [5]: 0.1 nM
126,398,O=C(c1ncccn1)N1CCOC2(CCN(Cc3ccc(Cl)cc3)CC2)C1,

IC50 [1] [nM],IC50 [2] [nM],SMILES,further results
79.4,> 1000,O=C(c1cccnc1)N1CCC2(CCN(Cc3ccccc3)CC2)CC1,
3.98,100,O=C(c1ccccc1)N1CCC2(CCN(Cc3cccc(Cl)c3)CC2)CC1,
31.6,31.6,O=C(c1ccc2occc2c1)N1CCOC2(CCN(Cc3ccc(Cl)cc3)CC2)C1,
39.8,200,O=C(c1cnsn1)N1CCOC2(CCN(Cc3ccc(Cl)cc3)CC2)C1,
50.1,158,O=C(c1cscn1)N1CCOC2(CCN(Cc3ccc(Cl)cc3)CC2)C1,
2.51,100,Cc1cccc(CN2CCC3(CC2)CCN(C(=O)c2ccccc2)CC3)c1,
3.16,10,Cc1nc(C(=O)N2CCOC3(CCN(Cc4ccc(Cl)cc4)CC3)C2)cs1,microsomal CLint [7]: 11 µL/min/mg; logD [8]: 2.2; CL [9]: 47 µL/min/mg
126,100,O=C(c1ccc(CO)o1)N1CCOC2(CCN(Cc3ccc(Cl)cc3)CC2)C1,
79.4,> 1000,O=C(c1ccco1)N1CCC2(CCN(Cc3ccccc3)CC2)CC1,
,> 1000,O=C(c1cccnc1)N1CCOC2(CCN(Cc3ccc(Cl)cc3)CC2)C1,
63.1,126,O=C(c1ccoc1)N1CCOC2(CCN(Cc3ccc(Cl)cc3)CC2)C1,
> 1000,> 1000,Cc1nc(C(=O)N2CCCC3(CCN(Cc4ccccc4)CC3)C2)cs1,
126,251,O=C(c1ccccc1)N1CCOC2(CCN(Cc3ccc(Cl)cc3)CC2)C1,
> 1000,> 1000,Cc1nc(C(=O)N2CCCC3(CCN(Cc4ccc(Cl)cc4)CC3)C2)cs1,
79.4,794,CCOc1ccccc1C(=O)N1CCC2(CCN(Cc3ccccc3)CC2)CC1,
31.6,15.8,CC(C)c1nc(C(=O)N2CCOC3(CCN(Cc4ccc(Cl)cc4)CC3)C2)cs1,
12.6,15.8,CCc1nc(C(=O)N2CCOC3(CCN(Cc4ccc(Cl)cc4)CC3)C2)cs1,
